Experimental data reported in PubChem BioAssay (NCI).
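Following 48 hours of exposure in 96-well plates, responses at five concentrations were used to interpolate endpoints linearly. At the TGI there is no net growth.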

Assays:
Test in all cases: growth of human tumour cells (NCI), 48 h
CCRF-CEM leukemia = tested on: CCRF-CEM leukemia
786-0 renal = tested on: 786-0 renal
SNB-19 CNS = tested on: SNB-19 CNS
LOX IMVI melanoma = tested on: LOX IMVI melanoma
SK-OV-3 ovarian = tested on: SK-OV-3 ovarian
SR leukemia = tested on: SR leukemia
SK-MEL-2 melanoma = tested on: SK-MEL-2 melanoma
UO-31 renal = tested on: UO-31 renal
T-47D breast = tested on: T-47D breast

| SMILES | TGI (CCRF-CEM leukemia) | TGI (786-0 renal) | TGI (SNB-19 CNS) | TGI (LOX IMVI melanoma) | TGI (SK-OV-3 ovarian) | TGI (SR leukemia) | TGI (SK-MEL-2 melanoma) | TGI (UO-31 renal) | TGI (T-47D breast) |
| --- | --- | --- | --- | --- | --- | --- | --- | --- | --- |
| CCCCCCCCCCCCCCC(O)C[N+](C)(CCO)CCO (centres undefined) | 9.82 µM | 4.78 µM | 3.39 µM | 4.66 µM | 30.7 µM | 10.1 µM | 27.5 µM | 17 µM | 30.6 µM |
| Nc1nc(Cl)cc(NC2(CO)CCC2)n1 | > 100 µM | > 100 µM |  | > 100 µM |  | > 100 µM | > 100 µM | > 100 µM | > 100 µM |
| CSc1ccn(C2CC(F)C(CO)O2)c(=O)n1 (centres undefined) | > 100 µM | > 100 µM | > 100 µM | > 100 µM | > 100 µM | > 100 µM | > 100 µM | > 100 µM | > 100 µM |
| Cc1cc(S(=O)(=O)Nc2nnc3cnc4ccccc4n23)c(S)cc1Cl | > 100 µM | > 100 µM | > 100 µM | > 100 µM | > 100 µM | > 100 µM | > 100 µM | > 100 µM | > 100 µM |
| CC(=O)Oc1c(-c2ccccc2)sc2ccccc12 | 37 µM | 28.9 µM | > 100 µM | 26.4 µM |  | 29.4 µM | 31.4 µM | 36.6 µM | 44.5 µM |
| Cc1c(N=Nc2ccccc2)c(C)n(C2OC(CO)C(O)C(O)C2O)c(=S)c1C#N (centres undefined) | > 100 µM | > 100 µM | 96.2 µM | 54.8 µM | > 100 µM | 87.7 µM | 90.2 µM | 73.1 µM | 95.8 µM |
| O=c1[nH]cc(Cl)c(=O)[nH]1 | > 100 µM | > 100 µM | > 100 µM | > 100 µM | > 100 µM | > 100 µM | > 100 µM | > 100 µM | > 100 µM |
| COc1ccccc1NC(=O)CC(=O)N1N=C(N2c3ccccc3Sc3ccccc32)CC1c1ccccc1 (centres undefined) | > 100 µM | > 100 µM | > 100 µM |  | > 100 µM | > 100 µM | > 100 µM | > 100 µM | > 100 µM |
| Nc1ncn2c(n1)nc1ccccc12 | > 100 µM | > 100 µM | > 100 µM |  | > 100 µM | > 100 µM | > 100 µM | > 100 µM | > 100 µM |
| O=C(Nc1cccc([N+](=O)[O-])c1)c1n[nH]n(-c2cccc([N+](=O)[O-])c2)c1=O | > 100 µM | > 100 µM | > 100 µM | > 100 µM | > 100 µM | > 100 µM | > 100 µM | > 100 µM | > 100 µM |
| S=c1[nH]n2c(CCCCCCCCc3nnc4sc(=S)[nH]n34)nnc2s1 | > 100 µM | > 100 µM | > 100 µM |  | > 100 µM | > 100 µM | > 100 µM | > 100 µM | > 100 µM |
| CC(=O)Oc1ccc2c(c1)CC[C@@H]1C2[C@@H](O[N+](=O)[O-])C[C@@]2(C)C1CC[C@@H]2O[N+](=O)[O-] (some centres undefined) | 38.8 µM | 28.4 µM | 32.4 µM | 28.9 µM |  | 27.7 µM | 31.5 µM | 26.1 µM | 26.8 µM |
| Clc1cccc(NN=Nc2ccc(-c3nc4ccccc4s3)cc2)c1 | 37.7 µM | 51.4 µM | > 100 µM | > 100 µM | > 100 µM | 43 µM | 48.1 µM | > 100 µM | > 100 µM |
| CCOC(=O)C(Cc1ccc(OC(=O)OC(C)(C)C)cc1)NC(=O)OC(C)(C)C (centres undefined) | > 100 µM | > 100 µM | > 100 µM | > 100 µM | > 100 µM | 67.5 µM | > 100 µM | > 100 µM | 70.7 µM |
| NNC(=S)NCCNC(=S)NN | > 100 µM | > 100 µM | > 100 µM | > 100 µM | > 100 µM | > 100 µM | > 100 µM | > 100 µM | > 100 µM |
| COc1cc2c3c(n(C)c(=O)c2cc1OC)-c1cc2c(cc1/C3=C\CCCI)OCO2 | > 100 µM | > 100 µM | > 100 µM | > 100 µM | > 100 µM | 23.2 µM | > 100 µM | > 100 µM | > 95.4 µM |
| COC1=CC(=O)CC(C)C12Oc1c(Cl)c(OC)cc(OC)c1C2=O (centres undefined) | 98.3 µM | > 100 µM | > 100 µM | > 100 µM | > 100 µM | > 28.2 µM | > 100 µM | > 88.1 µM | > 100 µM |
| CCCCCCCCCCCC[C@@H](O)[C@H]1CCC([C@H](O)CCCCC(=O)CCCCCCCC2=C[C@H](C)OC2=O)O1 (some centres undefined) | > 50 µM | > 50 µM | > 50 µM | > 50 µM | > 50 µM | 10.1 µM | > 50 µM | > 50 µM | > 50 µM |
| Clc1ccc(-c2cn3c(nc4ccccc43)c(/C=C/c3ccco3)n2)cc1 |  | > 100 µM | > 100 µM | > 100 µM | > 100 µM | 41.4 µM | 41.6 µM | > 100 µM | > 100 µM |
| COC1=CC2(CC(OC)=C1OC)OC21COc2ccccc2C1=O (centres undefined) | > 100 µM | > 100 µM | > 100 µM | > 100 µM | > 100 µM | 89.7 µM | > 100 µM | > 100 µM | > 100 µM |
| Cc1nc(C)c(N2CCNCC2)c(=O)[nH]1 | > 100 µM | > 100 µM | > 100 µM | > 100 µM | > 100 µM | > 100 µM |  | > 100 µM | > 100 µM |
| O=c1ccn(C2OC(CO)C(O)C2F)c(=O)n1Cc1ccccc1 (centres undefined) | > 100 µM | > 100 µM | > 100 µM | > 100 µM |  | > 100 µM |  | > 100 µM | > 100 µM |
| C=C1CC(Cn2ccc(=O)[nH]c2=O)(c2ccc(Cl)cc2)OC1=O (centres undefined) | 3.46 µM | 4.83 µM | > 71.1 µM | 5.94 µM | 28.3 µM | 11.7 µM | 22.5 µM | 33 µM | 12.1 µM |
| COC(=O)N[C@H](C(=O)O)C(C)O[Si](C)(C)C(C)(C)C (some centres undefined) | > 100 µM | > 100 µM | > 100 µM | > 100 µM | > 100 µM | > 100 µM |  | > 100 µM | > 100 µM |
